The source of these data is paper PMC11457037 (Journal of medicinal chemistry, 2023).

The test system of series [1] is EV-D68 US/MO/14-18947. Nature of the series: Plaque assay, EV-D68 US/MO/14-18947. It is filed as cell-based, Enterovirus D68.
The target of series [2] is T1, EV-D68 2A^pro (Enterovirus D68, UniProt A0A097BW19). The experiment in a line: FRET-based enzymatic assay. It is filed as biochemical.
The nature of series [3]: In vivo toxicity, escalating i.p. doses.
Series [4] addresses T1, EV-D68 2A^pro. Nature of the series: Enzyme kinetic studies. It is filed as biochemical. Conditions: for Mode of inhibition of EV-D68 2A^pro: from fitting of kinetic curves.
In the next series the test system is five strains of EV-D68. Nature of the series: Broad-spectrum antiviral activity, five strains of EV-D68 together. It counts as cell-based, Enterovirus D68.
The nature of series [5]: In vivo snap P.K. in mice. The conditions noted are these: male C57BL/6J mice, 50 mg/kg i.p., 10% DMSO and 90% corn oil.
The subject of series [6] is multiple strains of EV-D68. Conditions: read-out: EC50 values, multiple strains of EV-D68; viral cytopathic effect assay and plaque assay; cited from earlier work. On the technique in general: Cytopathic effects are the visible damage that an infection or toxin causes in cultured cells.
The test system of another series is R.D. cells. Nature of the series: Cytotoxicity, neutral red uptake method in R.D. cells. It counts as cell-based, Human. Conditions: read-out: Cytotoxicity CC50.
In series [7] the test system is EV-D68 US/MO/14-18947. The experiment in a line: CPE assay with EV-D68 US/MO/14-18947 in R.D. cells. It is filed as cell-based, Enterovirus D68. Conditions: read-out: Antiviral EC50; CPE assay, EV-D68 US/MO/14-18947, R.D. cells.

By EC50 is commonly meant the concentration needed to bring the measured effect to its halfway point. For orientation: kinact means the rate constant of inactivation at saturating inhibitor. In general, CC50 refers to the concentration at which the toxic effect on the cells reaches its halfway point. By IC50 is commonly meant the midpoint of a concentration-inhibition curve.

Turning to `CCC(C)[C@H](NC(=O)[C@@H]1[C@H]2CCC[C@H]2CN1C(=O)[C@@H](NC(=O)CC12CC3CC(CC(C3)C1)C2)C(C)(C)C)C(=O)C(=O)NC1CC1` (stereo partly drawn) [Jun11756, (1S,3aR,6aS)-2-((S)-2-(2-((3S,5S,7S)-adamantan-1-yl)acetamido)-3,3-dimethylbutanoyl)-N-((3S,4S)-1-(cyclopropylamino)-4-methyl-1,2-dioxohexan-3-yl)octahydrocyclopenta[c]pyrrole-1-carboxamide], in the series on EV-D68 US/MO/14-18947 [1], the “fold improvement compared to telaprevir, plaque assay EC50” value is 3 to 4 fold. Moreover, the “enzymatic inhibition, comparison in words” value on EV-D68 2A^pro [2] is “comparable enzymatic inhibition and antiviral activity as Jun8861”.

Regarding `CC(C)(C)[C@H](NC(=O)CC12CC3CC(CC(C3)C1)C2)C(=O)N1C[C@@H]2CCC[C@@H]2[C@H]1C(=O)N[C@H](C(=O)C(=O)NC1CC1)C1CCCCC1` [Jun11762, (1S,3aR,6aS)-2-((S)-2-(2-((3S,5S,7S)-adamantan-1-yl)acetamido)-3,3-dimethylbutanoyl)-N-((S)-1-cyclohexyl-3-(cyclopropylamino)-2,3-dioxopropyl)octahydrocyclopenta[c]pyrrole-1-carboxamide], the “fold improvement compared to telaprevir, plaque assay EC50” value with EV-D68 US/MO/14-18947 [1] is listed as 3 to 4 fold. Besides, the “mortality and body weight” value in [3] (BALB/c mice, i.p. 100 to 400 mg/kg, monitored up to day 16) was “no mortality or significant body weight loss was observed”. Further, in series [3] (female, BALB/c, mouse, in vivo, 16 days), the tolerated dose entry was “up to 400 mg/kg”. For the same compound, the “Mode of inhibition of EV-D68 2A^pro” value on EV-D68 2A^pro [4] is “reversible binding”. In addition, the “enzymatic inhibition, comparison in words” value at EV-D68 2A^pro [2] was “comparable enzymatic inhibition and antiviral activity as Jun8861”. In addition, the EC50 in the series with five strains of EV-D68 (Enterovirus D, EVD68, read-out: EC50 values over all five strains) is 43 to 269 nM. Also, the “fold improvement compared to telaprevir, five strains” value in the series with five strains of EV-D68 (five EV-D68 strains) is 3.1-4.6 fold. For the same compound, in series [5], the “time plasma concentration was above 4-fold of EC50 value (0.13 μM)” value is given as “at least 5 h”.

On to `CCC[C@H](NC(=O)[C@@H]1[C@H]2CCC[C@H]2CN1C(=O)[C@@H](NC(=O)[C@@H](NC(=O)c1cnccn1)C1CCCCC1)C(C)(C)C)C(=O)C(=O)NC1CC1` [Telaprevir, telaprevir, reference compound], for which, at EV-D68 2A^pro [4], the kinact is 0.00146 s⁻¹ and the “Mode of inhibition of EV-D68 2A^pro” value is recorded as “irreversible covalent inhibitor”. Also, the EC50 in [6] was 400 to 1900 nM.

On to “(1S,3aR,6aS)-N-((S)-1-(cyclopropylamino)-1,2-dioxohexan-3-yl)-2-((S)-3,3-dimethyl-2-(2-phenylacetamido)butanoyl)octahydrocyclopenta[c]pyrrole-1-carboxamide [Jun8861]”, for which, in the series on R.D. cells, the CC50 stood at 36.2 µM. The “Mode of inhibition of EV-D68 2A^pro” value on EV-D68 2A^pro [4] is listed as “reversible binding”. Further, on EV-D68 2A^pro [2] (read-out: Enzymatic inhibitory activity IC50, EV-D68 2A^pro), the IC50 came to 80 nM. Further, the EC50 in the series on EV-D68 US/MO/14-18947 [7] is 160 nM.
